The source of these data is patent US8663711B2, “Use of armillaridin for treating cancer” (Mackay Memorial Hospital, priority 2012, dated 2014).

Data set [1] has as its system CE81T/VGH cells xenografted esophageal tumor. In words: Xenograft esophageal cancer mice model. The format is in vivo, Balb/c nude mice. The method, then:
For primary esophageal cancer model, total of 9 Balb/c nude mice at the age of 6 weeks were randomly divided into 3 groups, with 3 mice in each group. To start the experiment, each mice were injected with 5×10^5 CE81T/VGH cells subcutaneously to generate esophageal cancer on day 0, and then returned to culture for another 21 days to allow tumor progression. To evaluate the efficacy of the test compound, mice in the test group were given 3 doses of the test compound (CH-205-O at 80 mg/Kg/dose; or cisplatin at 2.5 mg/Kg/dose) every week, and total of […] were given during a period of 20 days after treatment started on day 22. Tumor sizes were measured using calipers. The body weight and the white blood cell counts of each mice were respectively recorded every day throughout the experiment. Tumor volume was calculated using the formula: volume=width^2×length×0.52.
Effects of CH-205-O of this disclosure on mice grafted with CE81T/VGH cells were investigated by measuring the grafted tumor volume; body weight and the number of white blood cells of the mice in accordance with steps described in “Materials and Methods” section. Results are illustrated in FIG. 3.

Data set [2] relates to CE81T/VGH cells. Description: Cell cycle analysis by flow cytometry (propidium iodine). The format is cell-based, human. The method, then: FIG. 1 illustrates the effects of CH-205-O (i.e., armillaridin) on cell cycle distribution in CE81T/VGH cells in accordance with one embodiment of this invention, in which upper panels represented results obtained from CE81T/VGH cells treated with 0 (panel A), 10 μM (panel B) or 20 μM (panel C) of CH-205-O for 48 hours, and lower panels represented results obtained from CE81T/VGH cells treated with 0 (panel D), 10 μM (panel E) or 20 μM (panel F) of CH-205-O for 72 hours;
Cultured cells with or without pre-treatment of the compound of this invention (i.e., armillaridin at 10 or 20 μM for 48 or 72 hours) were harvested from the cultured media and fixed by incubating with 75% iced cold ethanol at 4° C. for at least over night. The fixed cells were then warmed up to room temperature and treated with RNAase A for about 30 min. Precipitated cells were collected by centrifugation and re-suspended in a buffer solution containing propidium iodine (20 μg/ml) before being subject to flow cytometry analysis, where cell numbers at respective cell cycles were determined.
In general terms: A flow cytometer gives signals particle by particle.

The subject of data set [3] is CE81T/VGH human esophageal squamous carcinoma cell line. Description: Trypan blue exclusion test, cell viability. Conditions: read-out: IC50 (concentration required to reduce viability by 50%). The format is cell-based. The method, then: (§1) Cell lines used in the present disclosure include human esophageal squamous carcinoma cell lines CE81T/VGH and TE-2, and human esophageal adenocarcinoma cell lines BE-3 and SKGT-4. Each cell lines were cultured and maintained in Dulbecco's modified Eagle media (DMEM) supplemented with 10% fetal calf serum, 100 IU/ml penicillin, 100 μg/ml streptomycin, and 2 mM glutamine in 5% CO2 at 37° C.
(§2) The dye exclusion test is used to determine the number of viable cells present in a cell suspension. […] In this test, the cells were first treated with a test compound (i.e., CH-205-O) for a certain period of time (e.g., 72 hours), then the cells were harvested and re-suspended in suitable buffer solution. The cell suspension was then mixed with trypan blue dye and then visually examined to determine whether cells had taken up or excluded the dye. A viable cell will have a clear cytoplasm, whereas a nonviable cell will have a blue cytoplasm. The concentration required to reduce viability by 50% (IC50) after 72 hours was extrapolated from the dose-response curves by different concentrations of the test compound using a second-order polynomial regression model and analyzing with SigmaPlot Software (Systat Software Inc., San Jose, Calif.).
(§3) The human esophageal cancer cell lines including squamous cell carcinoma cell lines CE81T/VGH and TE-2, and adenocarcinoma cell lines BE-3 and SKGT-4 were cultured and maintained by procedures described above in the “Materials and Methods” Section. Anti-proliferative activity of armillaridin (hereafter “CH-205-O”) on each cell lines was assessed by cell viability and cell cycle analysis.

Data set [4] deals with SKGT-4 human esophageal adenocarcinoma cell line. In words: Trypan blue exclusion test, cell viability. It counts as cell-based. Conditions: SKGT-4, 72 hours, read-out: IC50 (concentration required to reduce viability by 50%). The method, then:
as §1, §2, §3

In data set [5] the test system is TE-2 human esophageal squamous carcinoma cell line. Description: Trypan blue exclusion test, cell viability. The format is cell-based. Conditions: TE-2, 72 hours, read-out: IC50 (concentration required to reduce viability by 50%). The method, then: as §1, §2, §3
Data set [6] relates to BE-3 human esophageal adenocarcinoma cell line. In words: Trypan blue exclusion test, cell viability. The format is cell-based. Conditions: BE-3, 72 hours, read-out: IC50 (concentration required to reduce viability by 50%). The procedure: as §1, §2, §3
For data set [7], the system named is CE81T/VGH cells. In words: Radiation treatment and clonogenic assay. The format is cell-based, human. Conditions: pre-treatment 2.5 or 5 μM for 24 hours, then 0-4 Gy radiation, colonies counted after 14 days. The procedure:
Approximately 100 variable tumor cells were respectively plated onto 35-mm six-well culture dishes and were allowed to grow in DMEM medium contained 10% FCS mixed with 0, 1.25, 2.5 or 5 μM of the test compound of this disclosure (i.e., CH-205-O), and the test compound-treated cells were continued culture for 24 hours. The test compound was then washed out, and cells were subject to radiation treatment. Specifically, 6 MeV electron beam energy was delivered by a linear accelerator (Clinac 1800, Varian Associates, Inc., Palo Alto, Calif., USA) with a rate of 2.4 Gy/min at various dose including 0, 0.5, 1, 2, 3 and 4 Gy in a single fraction. Full electron equilibrium was ensured for each fraction by a parallel plate PR-60C ionization chamber (CAPINTEL, Inc., Ramsey, N.Y., USA).
After radiation treatment, cells were returned to the culture for another 14 days; then were stained with 3% crystal violet and the numbers of colony (≧50 cells) were counted.
To this purpose, cancerous cells were pre-treated with 1.25, 2.5 or 5 μM CH-205-O, before being treated with various doses of radiation in accordance with procedures described in “Materials and Methods” section. […]

[8] abbreviates: long-term exposure, 80 mg/Kg/dose, 12 doses.

Where two headings read alike, the source gives them in different places.

As to `COc1cc(O)c(C(=O)O[C@@H]2C[C@]3(C)C4CC(C)(C)CC4C=C(C=O)[C@]23O)c(C)c1Cl` (stereo partly drawn) [CH-205-O, (2R,2aS,7bR)-3-formyl-2,2a,4a,5,6,7,7a,7b-octahydro-2a-hydroxy-6,6,7b-trimethyl-1H-cyclobuta[e]inden-2-yl 3-chloro-6-hydroxy-4-methoxy-2-methylbenzoate], the “Volume of the xenografted esophageal tumor” value in data set [1] (80 mg/Kg/dose, at least 12 doses, compared with control mice (vehicle only)) is reported as “effective in reducing the volume of the xenografted esophageal tumor significantly”. For the same molecule, in data set [1] (setting [8]), the “Body weight of the mice” value is recorded as “does not affect”. Besides, the “Number of white blood cells of the mice” value in data set [1] (setting [8]) is “does not affect”. Further, the “Reduction of the size of the cancer as compared with control” value in data set [1] (long-term exposure, at least 12 doses within 20 days, 3 doses per week) is “at least 50%”. In the data set with CE81T/VGH cells [2] (10 or 20 μM for 48 hours, CE81T/VGH cells), the “Cell cycle arrest at G2/M phase” value was “capable of arresting the CE81T/VGH cells at G2/M phase in a dose-dependent manner”. In the data set with CE81T/VGH cells [2] (10 or 20 μM, treatment for 72 hours, CE81T/VGH cells), the “sub-G1 population of cells” value was “induce an increase in the sub-G1 population of cells”. The “Esophageal cancerous cells arrested at G2/M cycle” value in the data set with CE81T/VGH cells [2] (one specific example) is “at least 50%”. The IC50 in data set [3] (72 hours) was 6.9 µM; in data set [3] (Homo sapiens, CE81T, 72 h) it was about 7 µM; in data set [4] (Homo sapiens, SKGT4, 72 h), about 5 µM; in data set [4], 5.5 µM; in data set [5] (Homo sapiens, 72 h), about 3 µM; in data set [5], 3.4 µM. In addition, the IC50 in data set [6] is 5.4 µM; in data set [6] (Homo sapiens, 72 h), about 5 µM. The “Susceptibility of CE81T/VGH cells to radiation treatment (colony formation)” value with CE81T/VGH cells [7] is listed as “capable of enhancing the susceptibility of CE81T/VGH cells to radiation treatment”.
